Two molecules from patent publication US20120178646A1, “HIGH THROUGHPUT METHOD AND SYSTEM FOR IN VIVO SCREENING” (ZF SCREENS B.V., priority 2009, published 2012) can be followed below.

The assay concerns Mycobacterium marinum strain E11. The experiment in a line: Granuloma formation in zebrafish larvae after intrayolk injection with Mycobacterium marinum (COPAS XL fluorescence profiling). The conditions noted are these: zebrafish embryos injected intrayolk at 16- to 256-cell stage, refreshed daily, screened at 5 dpi, confirmed by stereo fluorescence microscopy. The assay is classed as in vivo.

Molecules are shown by their SMILES.

As to `O=S(=O)(NCCNC/C=C/c1ccc(Br)cc1)c1cccc2cnccc12` [H89], the “presence of CherryFP-labeled granulomas in larvae” value (exposed from 2 dpi to 10 μM in 0.5% DMSO) is “did not contain granulomas”. For the molecule `CC[C@@H](CO)NCCN[C@@H](CC)CO` [ethambutol], for the setting “exposed from 2 dpi to 2 mM in water”, the “presence of CherryFP-labeled granulomas in larvae” value is “did not contain granulomas”.
